According to patent US11382892B2, “Method for administration” (Hoffmann-La Roche Inc., priority 2012, dated 2022):
Where “and” joins values, the source holds several entries; their conditions need not be identical. Equal entries are not always repeated.

Legend:
tumor proliferation = experiment: FLT PET imaging of tumor proliferation in patients; format: in vivo, human; conditions: for FLT PET Average % CBL: cohort average; for FLT PET Median % CBL: cohort median; for FLT PET % CBL Cycle 1: individual patients
Procedure: The 10 mg tablets contain hypromellose acetate succinate, mannitol, microcrystalline cellulose, croscarmellose sodium, colloidal silicon dioxide, and magnesium stearate. The film-coat consists of hypromellose, titanium dioxide, talc, triacetin, iron oxide yellow, and iron oxide red. The 50 mg, 200 mg, and 400 mg film coated tablets contain the excipients hypromellose acetate succinate, croscarmellose sodium, colloidal silicon dioxide, and magnesium stearate. The film-coat consists of polyvinyl alcohol, titanium dioxide, polyethylene glycol, talc, iron oxide yellow, iron oxide red, and iron oxide black. […]
A negative percent change from baseline is indicative of an antiproliferative effect.

[1] = system: human osteosarcoma cancer xenograft model SJSA1; experiment: Antitumor activity (tumor volume, TGI, regression) in SJSA1 xenograft; format: in vivo, mice; conditions: for Full Regression / Partial Regression: 10 animals per group
Description: Efficacy data was graphically represented as the mean tumor volume*standard error of the mean (SEM). In addition, tumor volumes of treated groups were presented as percentages of tumor volumes of the control groups (% T/C), using the formula: 100×((T−T0)/(C−C0)), where T represented mean tumor volume of a treated group on a specific day during the experiment, T0 represented mean tumor volume of the same […] group on the first day of treatment; C represented mean tumor volume of a control group on the specific day during the experiment, and C0 represented mean tumor volume of the same […] group on the first day of treatment.
Tumor volume (in cubic millimeters) was calculated using the ellipsoid formula: (D×(d^2))/2, where “D” represents the large diameter of the tumor and “d” represents the small diameter. In some cases, tumor regression and/or percent change in tumor volume was calculated using the formula: ((T−T0)/T0)×100, where ‘T’ represents mean tumor volume of the treated group at a particular day, and ‘T0’ represents mean tumor volume of the same treated group at initiation of treatment.
All dose levels are reported as the actual dosage of Compound A rather than including drug plus polymer.
Female athymic Crl:NU-Foxn1nu mice (10/group), obtained from Charles River Laboratories (Wilmington, Del.) were utilized when they were approximately 10-12 weeks of age and weighed 23-25 g. The health of the mice was assessed daily by gross observation and analyses of blood samples taken from sentinel animals housed on shared shelf racks. All animals were allowed to acclimate and recover from any shipping-related stress for a minimum of 72 hours prior to experimental use. Autoclaved water and irradiated food (5058-ms Pico Lab mouse chow, Purina Mills, Richmond, Ind.) were provided ad libitum, and the animals were maintained on a 12 hour light and dark cycle. Cages, bedding and water bottles were autoclaved before use and changed weekly. All animal experiments were conducted in accordance with the Guide for the Care and Use of Laboratory Animals, local regulations, and protocols approved by the Roche Animal Care and Use Committee in an AAALAC accredited facility.
SJSA cells (ATCC) were maintained in RPMI 1640+10% (v/v) heat-inactivated FBS+i % (v/v) […] L-glutamine. Each mouse received 5×10^6 cells in a 1:1 mixture of phosphate buffered saline and Matrigel in a total volume of 0.2 ml. Cells were implanted subcutaneously in the right flank using a 1 cc syringe and a 26 gauge needle.
Treatment duration was 2-4 weeks. Dates of tumor implant, treatment initiation (study start date), and termination of treatment (study end date) can be found in Table 6 below. The starting tumor volume for this study was about 220 mm^3. Tumor volumes and animal body weights were measured three times per week and animals were monitored for clinical signs daily.

[2] = 100 mg/kg QD po 2 on/12 off x 2
[3] = 200 mg/kg (two 100 mg/kg doses 8 hr apart) 1x/wk po

SMILES: COc1cc(C(=O)O)ccc1NC(=O)[C@@H]1N[C@@H](CC(C)(C)C)[C@](C#N)(c2ccc(Cl)cc2F)[C@H]1c1cccc(Cl)c1F [Compound A, 4-{[(2R,3S,4R,5S)-4-(4-Chloro-2-fluoro-phenyl)-3-(3-chloro-2-fluoro-phenyl)-4-cyano-5-(2,2-dimethyl-propyl)-pyrrolidine-2-carbonyl]-amino}-3-methoxy-benzoic acid]
- FLT PET Average % CBL (tumor proliferation; BM-A1 800 mg bid Qwk × 3): −17.0%
- FLT PET Median % CBL (tumor proliferation; BM-A1 800 mg bid Qwk × 3): −20.5%
- FLT PET % CBL Cycle 1 (tumor proliferation; BM-A1 800 mg bid Qwk × 3): −28.5% and −21.9% and −29.5% and 8.9% and −19.0% and −11.7%
- FLT PET Average % CBL (tumor proliferation; BM-A2 1200 mg bid Qwk × 3): −0.9%
- FLT PET Median % CBL (tumor proliferation; BM-A2 1200 mg bid Qwk × 3): 3.2%
- FLT PET % CBL Cycle 1 (tumor proliferation; BM-A2 1200 mg bid Qwk × 3): −5.0% and 21.1% and −31.1% and 11.3% and −73.1%
- FLT PET Average % CBL (tumor proliferation; BM-B1 400 mg bid × 5 d): −43.4%
- FLT PET Median % CBL (tumor proliferation; BM-B1 400 mg bid × 5 d): −32.2%
- FLT PET % CBL Cycle 1 (tumor proliferation; BM-B1 400 mg bid × 5 d): −82.5% and −29.3% and −23.4% and −32.2%
- FLT PET Average % CBL (tumor proliferation; BM-B2 500 mg bid × 3 d): −39.2%
- FLT PET Median % CBL (tumor proliferation; BM-B2 500 mg bid × 3 d): −34.9%
- FLT PET % CBL Cycle 1 (tumor proliferation; BM-B2 500 mg bid × 3 d): −34.9% and −62.4% and −24.7% and −19.4% and −54.5%
- FLT PET Average % CBL (tumor proliferation; BM-B3 500 mg qd × 5 d): −29.04%
- FLT PET Median % CBL (tumor proliferation; BM-B3 500 mg qd × 5 d): −31.0%
- FLT PET % CBL Cycle 1 (tumor proliferation; BM-B3 500 mg qd × 5 d): −56.4% and −34.3% and −21.7% and −31% and −1.8%
- antiproliferative effect by FLT PET (tumor proliferation; all doses tested, in particular 3 day and 5 day schedules): antiproliferative effects was seen in all doses tested
- % Inhibition end of study Day: 32 ([1]; 7.5 mg/kg QD po): 66%
- % T/C End of Study Day: 32 ([1]; 7.5 mg/kg QD po): 34%
- Mean Tumor Volume (mm3) End Study Day: 32 ([1]; 7.5 mg/kg QD po): 18.01 mm3
- Full Regression ([1]; 7.5 mg/kg QD po): 0
- Partial Regression ([1]; 7.5 mg/kg QD po): 0
- % Inhibition end of study Day: 32 ([1]; 15 mg/kg QD po): 79%
- % T/C End of Study Day: 32 ([1]; 15 mg/kg QD po): 21%
- Mean Tumor Volume (mm3) End Study Day: 32 ([1]; 15 mg/kg QD po): 16.42 mm3
- Full Regression ([1]; 15 mg/kg QD po): 0
- Partial Regression ([1]; 15 mg/kg QD po): 0
- % Inhibition end of study Day: 32 ([1]; 20 mg/kg QD po 20 on/8 off): 98%
- % T/C End of Study Day: 32 ([1]; 20 mg/kg QD po 20 on/8 off): 2%
- Mean Tumor Volume (mm3) End Study Day: 32 ([1]; 20 mg/kg QD po 20 on/8 off): 315.19 mm3
- Full Regression ([1]; 20 mg/kg QD po 20 on/8 off): 0
- Partial Regression ([1]; 20 mg/kg QD po 20 on/8 off): 5
- % Inhibition end of study Day: 32 ([1]; 30 mg/kg QD po): regression
- % T/C End of Study Day: 32 ([1]; 30 mg/kg QD po): −1%
- Average % Regression per Group ([1]; 30 mg/kg QD po): 13%
- Mean Tumor Volume (mm3) End Study Day: 32 ([1]; 30 mg/kg QD po): 19.35 mm3
- Full Regression ([1]; 30 mg/kg QD po): 0
- Partial Regression ([1]; 30 mg/kg QD po): 7
- % Inhibition end of study Day: 32 ([1]; 50 mg/kg 1x/wk po): 57%
- % T/C End of Study Day: 32 ([1]; 50 mg/kg 1x/wk po): 43%
- Mean Tumor Volume (mm3) End Study Day: 32 ([1]; 50 mg/kg 1x/wk po): 22.66 mm3
- Full Regression ([1]; 50 mg/kg 1x/wk po): 0
- Partial Regression ([1]; 50 mg/kg 1x/wk po): 0
- % Inhibition end of study Day: 32 ([1]; 50 mg/kg QD po 2 on/5 off x 4): 99%
- % T/C End of Study Day: 32 ([1]; 50 mg/kg QD po 2 on/5 off x 4): 1%
- Mean Tumor Volume (mm3) End Study Day: 32 ([1]; 50 mg/kg QD po 2 on/5 off x 4): 257.29 mm3
- Full Regression ([1]; 50 mg/kg QD po 2 on/5 off x 4): 0
- Partial Regression ([1]; 50 mg/kg QD po 2 on/5 off x 4): 3
- % Inhibition end of study Day: 32 ([1]; 50 mg/kg QD po 4 on/10 off x 2): 99%
- % T/C End of Study Day: 32 ([1]; 50 mg/kg QD po 4 on/10 off x 2): 1%
- Mean Tumor Volume (mm3) End Study Day: 32 ([1]; 50 mg/kg QD po 4 on/10 off x 2): 244.70 mm3
- Full Regression ([1]; 50 mg/kg QD po 4 on/10 off x 2): 0
- Partial Regression ([1]; 50 mg/kg QD po 4 on/10 off x 2): 6
- % Inhibition end of study Day: 32 ([1]; 80 mg/kg QD po 5 on/23 off): regression
- % T/C End of Study Day: 32 ([1]; 80 mg/kg QD po 5 on/23 off): −2%
- Average % Regression per Group ([1]; 80 mg/kg QD po 5 on/23 off): 35%
- Mean Tumor Volume (mm3) End Study Day: 32 ([1]; 80 mg/kg QD po 5 on/23 off): 128.05 mm3
- Full Regression ([1]; 80 mg/kg QD po 5 on/23 off): 2
- Partial Regression ([1]; 80 mg/kg QD po 5 on/23 off): 6
- % Inhibition end of study Day: 32 ([1]; 100 mg/kg 1x/wk po): 94%
- % T/C End of Study Day: 32 ([1]; 100 mg/kg 1x/wk po): 6%
- Mean Tumor Volume (mm3) End Study Day: 32 ([1]; 100 mg/kg 1x/wk po): 474.73 mm3
- Full Regression ([1]; 100 mg/kg 1x/wk po): 0
- Partial Regression ([1]; 100 mg/kg 1x/wk po): 1
- % Inhibition end of study Day: 32 ([1]; 100 mg/kg QD po 2 on/5 off x 4): regression
- % T/C End of Study Day: 32 ([1]; 100 mg/kg QD po 2 on/5 off x 4): −2%
- Average % Regression per Group ([1]; 100 mg/kg QD po 2 on/5 off x 4): 47%
- Mean Tumor Volume (mm3) End Study Day: 32 ([1]; 100 mg/kg QD po 2 on/5 off x 4): 25.68 mm3
- Full Regression ([1]; 100 mg/kg QD po 2 on/5 off x 4): 0
- Partial Regression ([1]; 100 mg/kg QD po 2 on/5 off x 4): 9
- % Inhibition end of study Day: 32 [1, 2]: regression
- % T/C End of Study Day: 32 [1, 2]: 0%
- Average % Regression per Group [1, 2]: 11%
- Mean Tumor Volume (mm3) End Study Day: 32 [1, 2]: 179.88 mm3
- Full Regression [1, 2]: 0
- Partial Regression [1, 2]: 7
- % Inhibition end of study Day: 32 [1, 3]: regression
- % T/C End of Study Day: 32 [1, 3]: −1%
- Average % Regression per Group [1, 3]: 29%
- Mean Tumor Volume (mm3) End Study Day: 32 [1, 3]: 158.95 mm3
- Full Regression [1, 3]: 0
- Partial Regression [1, 3]: 7
- growth inhibitory activity (FIG. 1) ([1]; 5 day on/23 day off treatment schedule): good growth inhibitory activity
